Measured values published in patent EP4534542A1, “THIOSUGAR BASED ISOTHIOCYANATES AND USES THEREOF” (Universidad de Sevilla, priority 2023, dated 2025).

Assays:
[1] = test system: HaCaT cells; test: Cell viability assay (resazurin), cytotoxicity in non-malignant cells; type: cell-based, human; conditions: Homo sapiens, HaCaT, 72 h, read-out: IC50 HaCaT (Non-malignant keratinocyte)
Procedure: (§1) Cells were grown in Dulbecco's Modified Eagle's Medium (DMEM) supplemented with 100 U/mL penicillin, 100 µg/mL streptomycin and 10% fetal bovine serum. HL60 cell line (acute myeloid leukaemia, AML) was obtained from ATCC. It was cultured in IMDM medium supplemented with 100 U/mL penicillin, 100 µg/mL streptomycin and 10% fetal bovine serum. U937 (AML) and Jurkat cells (ALL) were obtained from DMSZ, Braunschweig, Germany, and ATCC, respectively. They were cultivated in RPMI medium, supplemented with 100 U/mL penicillin, 100 µg/mL streptomycin and 10% fetal bovine serum. […] All cell lines were cultured at 37 ° C with 5% CO2 in a humidified incubator. Cell culture reagents were purchased from Biowest. Exponentially growing cells (3000-6000 cells per well) were seeded in 96-well plates. After 24 hours, cells were treated with the drugs for 72 hours. The cell viability was then estimated with the resazurin assay, a colorimetric technique based on the capability of viable cells to reduce the blue reagent resazurin to the pink-soluble product resorufin. The amount of resorufin produced is proportional to the number of viable cells. Briefly, cells were washed once with phosphate buffered saline (PBS) and 150 µL resazurin (20 µg/mL in medium) was added to each well. The plates were incubated for 3 hours at 37 °C, 5% CO2, and finally optical densities were measured at 540 and 620 nm with a multiwell plate spectrophotometer reader (Multiskan EX Labsystems). Cell viability was calculated as a percentage compared to non-treated cells. The results were expressed as the means ± standard error of the mean (SEM). All data are from at least three independent experiments.

[2] = test system: A549 (human lung adenocarcinoma cells); test: Cell viability assay (resazurin), cytotoxic activity against solid tumours; type: cell-based
Procedure: as §1, with “The plates were incubated for 3 hours at 37 °C, 5% CO2, and finally optical densities were measured at 540 and 620 nm with a multiwell plate spectrophotometer reader (Multiskan EX Labsystems).” left out, “experiments. The selectivity index (S.I.) values were calculated over each cancer cell line as the mean of the IC50 value in the non-malignant cell line (HaCaT) by the IC50 in the respective cancer cell line obtained in each independent experiment.” for “experiments.”

[3] = test system: MeWo (human melanoma cells); test: as above; type: cell-based
Procedure: as §1, with “The plates were incubated for 3 hours at 37 °C, 5% CO2, and finally optical densities were measured at 540 and 620 nm with a multiwell plate spectrophotometer reader (Multiskan EX Labsystems).” left out, “experiments. The selectivity index (S.I.) values were calculated over each cancer cell line as the mean of the IC50 value in the non-malignant cell line (HaCaT) by the IC50 in the respective cancer cell line obtained in each independent experiment.” for “experiments.”

[4] = test system: T24 (human bladder cancer cells); test: as above; type: cell-based
Procedure: as §1, with “The plates were incubated for 3 hours at 37 °C, 5% CO2, and finally optical densities were measured at 540 and 620 nm with a multiwell plate spectrophotometer reader (Multiskan EX Labsystems).” left out, “experiments. The selectivity index (S.I.) values were calculated over each cancer cell line as the mean of the IC50 value in the non-malignant cell line (HaCaT) by the IC50 in the respective cancer cell line obtained in each independent experiment.” for “experiments.”

[5] = test system: HL60 (Acute myeloid leukaemia); test: Antileukemic activity, cell viability (CCK-8 Cell Counting Kit); type: cell-based; conditions: Homo sapiens, HL-60; 18 h incubation, compounds 0 - 100 µM; read-out: IC50 Cancer cells HL60 (Acute myeloid leukaemia)
Procedure: (§2) HaCaT cells (human keratinocytes, reference control), A549 (human lung adenocarcinoma cells), MeWo (human melanoma cells) and T24 (human bladder cancer cells) were purchased from Cell Lines Service (CLS). Cells were grown in Dulbecco's Modified Eagle's Medium (DMEM) supplemented with 100 U/mL penicillin, 100 µg/mL streptomycin and 10% fetal bovine serum. HL60 cell line (acute myeloid leukaemia, AML) was obtained from ATCC. It was cultured in IMDM medium supplemented with 100 U/mL penicillin, 100 µg/mL streptomycin and 10% fetal bovine serum. U937 (AML) and Jurkat cells (ALL) were obtained from DMSZ, Braunschweig, Germany, and ATCC, respectively. They were cultivated in RPMI medium, supplemented with 100 U/mL penicillin, 100 µg/mL streptomycin and 10% fetal bovine serum. OPM-2 cell line (MM), was obtained from DMSZ, Braunschweig, Germany and cultured in RPMI medium supplemented with 100 U/mL penicillin, 100 µg/mL streptomycin, 10% fetal bovine serum and 1X GlutaMAXTM. All cell lines were cultured at 37 ° C with 5% CO2 in a humidified incubator. Cell culture reagents were purchased from Biowest.
(§3) For the leukemic cell lines, the CCK-8 Cell Counting Kit (Dojindo Molecular Technologies) was used according to manufacturers instructions. Briefly, 50.000 cells were seeded in each well of a 96 well plate, and they were treated with increased amounts (0 - 100 µM) of each of the compounds, and incubated for 18 h at 37 °C, 5% CO2. After this period, 7 µl of the CCK-8 reagent were added to each well, and cells were further incubated for 2 h at 37 °C, 5% CO2. OD at 450 nm was obtained using a MultiskanTM GO microplate reader (Thermo Fisher Scientific, Waltham, MA, EE.UU). Cell viability in each condition was normalized to the measurement obtained in the non treated samples (100%), and were represented as average ± standard error of the mean (SEM).

[6] = test system: Jurkat (Acute lymphoblastic leukaemia); test: as above; type: cell-based; conditions: Homo sapiens, 18 h incubation, compounds 0 - 100 µM, read-out: IC50 Cancer cells Jurkat (Acute lymphoblastic leukaemia)
Procedure: as §2, §3

[7] = test system: OPM-2 (Multiple myeloma); test: as above; type: cell-based; conditions: Homo sapiens, 18 h incubation, compounds 0 - 100 µM, read-out: IC50 Cancer cells OPM-2 (Multiple myeloma)
Procedure: as §2, §3

[8] = test system: U937 (Acute myeloid leukaemia); test: as above; type: cell-based; conditions: Homo sapiens, U-937; 18 h incubation, compounds 0 - 100 µM; read-out: IC50 Cancer cells U937 (Acute myeloid leukaemia)
Procedure: as §2, §3

CC(=O)OC[C@H]1O[C@@H](S(=O)(=O)c2ccccc2)[C@H](OC(C)=O)[C@@H](N=C=S)[C@@H]1OC(C)=O [Compound 21β, Phenyl 2,4,6-tri-O-acetyl-3-isothiocyanato-1,3-dideoxy-1-sulfonyl-β-D-glucopyranose]
IC50 [1]: 55.7 ± 2.4 µM | IC50 ([2]; Homo sapiens, A549, 72 h, read-out: IC50 A549 (Lung adenocarcino ma)): 37.5 ± 8.6 µM | S.I. A549 (Selectivity Index) ([2]; IC50 HaCaT divided by IC50 A549, mean of independent experiments): 1.7±0.4 | IC50 ([3]; Homo sapiens, MeWo, 72 h, read-out: IC50 MeWo (Melanoma; BRAF WT)): 43.5 ± 9.4 µM | S.I. MeWo (Selectivity Index) ([3]; IC50 HaCaT divided by IC50 MeWo, mean of independent experiments): 1.5±0.3 | IC50 ([4]; Homo sapiens, 72 h, read-out: IC50 T24 (Bladder cancer)): 36.4 ± 9.3 µM | S.I. T24 (Selectivity Index) ([4]; IC50 HaCaT divided by IC50 T24, mean of independent experiments): 1.9±0.4 | IC50 [5]: 13.1 µM | IC50 [6]: 24.9 µM | IC50 [7]: 19.7 µM | IC50 [8]: ~48.3 µM
